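All cell lines were grown in 96-well plates and treated with compound for 48 hours. GI50 is the concentration that inhibits growth by half.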 Calls of active or inactive are those of the source. Cut-off read from the data, not from the text of the source: active = GI50 up to about 1.1 µM and inactive = higher. Square brackets hold non-standard residues; d marks the D form. Peptide text beside a SMILES is read from it. * marks the point of attachment. ξ: configuration not given here. NMeY = CN[C@@H](Cc1ccc(O)cc1)C(=O)O; Cbz = O=C(OCc1ccccc1)*; ξA = CC(N)C(=O)O

Test in all cases: NCI anticancer screen, dose series, 48 h
Experiment [1] concerns A549.
The subject of experiment [2] is COLO 205.
Experiment [3] deals with DU-145.
Experiment [4] relates to EKVX.
Experiment [5] has as its system HCT-116.
The subject of experiment [6] is HOP-62.
The subject of experiment [7] is HOP-92.
The subject of experiment [8] is HT-29.
Experiment [9] deals with KM12.
Experiment [10] deals with MCF7.
The test system of experiment [11] is MOLT-4.
Experiment [12] relates to RPMI-8226.
In experiment [13] the test system is SF-295.
Experiment [14] deals with SF-539.
The test system of experiment [15] is SK-MEL-28.
Experiment [16] concerns SNB-75.
Experiment [17] deals with TK-10.
In experiment [18] the test system is UACC-257.
Experiment [19] deals with UACC-62.
Experiment [20] deals with UO-31.

For the compound `Cn1c(Sc2ccc(-c3cccnc3)n2C)ccc1-c1cccnc1`, the GI50 in [1] was 26.4 µM (inactive); in experiment [2], 20 µM (inactive); in experiment [3], 18.1 µM (inactive); in experiment [4], 24 µM (inactive); in [5] it was 8.79 µM (inactive); in experiment [6], 17.6 µM (inactive). Besides, the GI50 in experiment [7] was 12.9 µM (inactive); in [8] it was 23.7 µM (inactive); in [9] it was 18 µM (inactive); in experiment [10] it was 17.7 µM (inactive); in experiment [11] it was 0.353 µM (active); in experiment [12], 6.65 µM (inactive). Also, the GI50 in experiment [13] is 16.2 µM (inactive); in experiment [14], 20.7 µM (inactive); in [15], 10.3 µM (inactive); in experiment [16] it was 21.8 µM (inactive); in experiment [17], 17.3 µM (inactive); in experiment [18] it was 12.4 µM (inactive). For the same compound, the GI50 is 14.9 µM (inactive) in [19] and 17.5 µM (inactive) in experiment [20].
Take `COc1ccc(C[C@@H](C(=O)N[C@@H](C)C(N)=O)N(C)C(=O)[C@@H]2CCCN2C(=O)[C@H](CC(C)C)NC(=O)C(C)NC(=O)OCc2ccccc2)cc1` (stereo not given in full) (Cbz-[ξA]LP[NMeY](Me)A-NH2): the GI50 in [1], in [2], in experiment [3], in experiment [4], in [5] and in experiment [6] was > 100 µM (inactive) throughout. For the same compound, the GI50 is > 100 µM (inactive) in [7]; > 100 µM (inactive) in [8]; > 100 µM (inactive) in experiment [9]; > 100 µM (inactive) in [10]; 35.5 µM (inactive) in experiment [11]; > 100 µM (inactive) in experiment [12]. For the same compound, the GI50 in experiment [13] is > 100 µM (inactive); in experiment [14], > 100 µM (inactive); in experiment [15], > 100 µM (inactive); in [16], 66.1 µM (inactive); in experiment [17], > 100 µM (inactive); in experiment [18], > 10 µM (inactive). For the same compound, the GI50 in experiment [19] is 73.1 µM (inactive); in experiment [20] it was > 100 µM (inactive).
Turning to `COc1ccc(NS(=O)(=O)c2ccc3ncn(NS(=O)(=O)c4ccc(I)cc4)c(=O)c3c2)cc1`, the GI50 in experiment [1], in [2], in experiment [3], in experiment [4], in [5] and in experiment [6] was > 100 µM (inactive) each time. The GI50 in experiment [7] is > 100 µM (inactive); in [8] it was > 100 µM (inactive); in experiment [9] it was 8.89 µM (inactive); in experiment [10] it was > 100 µM (inactive); in experiment [11], > 100 µM (inactive); in experiment [12] it was 6.03 µM (inactive). In addition, the GI50 in [13], in [14], in experiment [15], in experiment [16], in experiment [17] and in experiment [18] was > 100 µM (inactive) each time. The GI50 in experiment [19] was 95.9 µM (inactive); in experiment [20] it was 43.3 µM (inactive).
Regarding `CN(C)CCCN1C(=S)N(CCCN(C)C)c2c3ccccc3nc3c([N+](=O)[O-])ccc1c23`, the GI50 in experiment [1] was 5.41 µM (inactive); in experiment [2], 1.71 µM (inactive); in [3] it was 6.44 µM (inactive); in experiment [4], 5.5 µM (inactive); in experiment [5], 3.71 µM (inactive); in [6], 8.95 µM (inactive). The GI50 was 5.33 µM (inactive) in experiment [7]; 2.94 µM (inactive) in [8]; 3.3 µM (inactive) in experiment [9]; 5.47 µM (inactive) in experiment [10]; 5.58 µM (inactive) in [11]; 6.81 µM (inactive) in experiment [12]. Further, the GI50 in [13] is 8.38 µM (inactive); in experiment [14], 5.04 µM (inactive); in experiment [15], 13.6 µM (inactive); in experiment [16], 7.46 µM (inactive); in experiment [17], 10 µM (inactive); in [18] it was 6.01 µM (inactive). Further, the GI50 in [19] is 9.95 µM (inactive); in [20], 5.66 µM (inactive).
Take `CNC=O`: the GI50 in experiment [1] was > 10000 µM (inactive); in experiment [2], > 10000 µM (inactive); in experiment [3] it was > 10000 µM (inactive); in [4] it was > 10000 µM (inactive); in experiment [5] it was > 10000 µM (inactive); in [6], > 3980 µM (inactive). Also, the GI50 is > 9530 µM (inactive) in experiment [7]; > 10000 µM (inactive) in experiment [8]; > 10000 µM (inactive) in experiment [9]; > 10000 µM (inactive) in experiment [10]; > 10000 µM (inactive) in [11]; > 10000 µM (inactive) in experiment [12]. Besides, the GI50 in experiment [13] was > 9510 µM (inactive); in [14], > 10000 µM (inactive); in experiment [15] it was > 10000 µM (inactive); in [16], 8150 µM (inactive); in [17] it was > 10000 µM (inactive); in experiment [18], > 10000 µM (inactive). Further, the GI50 in [19] is > 8090 µM (inactive); in experiment [20], > 10000 µM (inactive).
`Fc1ccc(N2C(=S)SC(=N\c3ccccc3)/C2=N/c2ccccc2)cc1`: the GI50 in [1] is > 79.8 µM (inactive); in experiment [2], > 100 µM (inactive); in experiment [3], > 100 µM (inactive); in experiment [4] it was 97.5 µM (inactive); in experiment [5] it was 17.5 µM (inactive); in [6], > 75 µM (inactive). For the same compound, the GI50 in experiment [7] was > 42.8 µM (inactive); in [8] it was 27.1 µM (inactive); in experiment [9], 73.1 µM (inactive); in [10], > 73.8 µM (inactive); in experiment [11], 5.86 µM (inactive); in experiment [12], 32.8 µM (inactive). Moreover, the GI50 in [13] is > 100 µM (inactive); in experiment [14] it was > 100 µM (inactive); in experiment [15], > 100 µM (inactive); in experiment [16], > 100 µM (inactive); in [17], > 100 µM (inactive); in experiment [18] it was > 67.1 µM (inactive). Besides, the GI50 in experiment [19] was > 92 µM (inactive); in [20], > 86.1 µM (inactive).
Consider `C=C(CN(C)C)C(=O)c1ccc(OC)cc1`, for which the GI50 in experiment [1] was 18.2 µM (inactive); in experiment [2] it was 0.326 µM (active); in [3], 4.97 µM (inactive); in experiment [4], 18.7 µM (inactive); in [5], 1.58 µM (inactive); in experiment [6], 21.7 µM (inactive). Besides, the GI50 in experiment [7] was 1.32 µM (inactive); in experiment [8], 5.71 µM (inactive); in [9] it was 14.5 µM (inactive); in experiment [10] it was 2.77 µM (inactive); in experiment [11] it was 0.52 µM (active); in experiment [12] it was 2.11 µM (inactive). The GI50 in [13] was 28.5 µM (inactive); in experiment [14], 4.1 µM (inactive); in experiment [15], 3.49 µM (inactive); in experiment [16] it was 15.5 µM (inactive); in experiment [17], 2.24 µM (inactive); in [18], 5.31 µM (inactive). Besides, the figures for the GI50 in [19] and in experiment [20] were 9.33 µM (inactive) and 2.55 µM (inactive), respectively.
Turning to `C=C(C)c1nc(Oc2ccccc2)nc(Oc2ccccc2)n1`, the GI50 in experiment [1] is 19.5 µM (inactive); in experiment [2], 5.42 µM (inactive); in [3] it was 16.5 µM (inactive); in experiment [4], 13.6 µM (inactive); in [5], 3.53 µM (inactive); in [6], 16.1 µM (inactive). Moreover, the GI50 in [7] was 4.93 µM (inactive); in experiment [8] it was 3.99 µM (inactive); in experiment [9], 3.09 µM (inactive); in experiment [10], 3.08 µM (inactive); in [11], 0.664 µM (active); in [12] it was 1.57 µM (inactive). Moreover, the GI50 in [13] was 14.9 µM (inactive); in experiment [14], 6.37 µM (inactive); in experiment [15] it was 3.86 µM (inactive); in experiment [16], 9.75 µM (inactive); in [17], 3.72 µM (inactive); in experiment [18], 9.55 µM (inactive). Also, the GI50 in [19] is 5.78 µM (inactive); in experiment [20], 17.6 µM (inactive).
In the case of `CS(=O)(=O)O.[Ag]`, the GI50 in [1] is 10.3 µM (inactive); in [2], 2.16 µM (inactive); in [3], 17.1 µM (inactive); in experiment [4] it was 21.9 µM (inactive); in experiment [5], 5.04 µM (inactive); in [6], 25.4 µM (inactive). Also, the GI50 in experiment [7] was 2.14 µM (inactive); in experiment [8], 19.3 µM (inactive); in experiment [9] it was 29 µM (inactive); in [10], 4.03 µM (inactive); in experiment [11] it was 2.32 µM (inactive); in [12] it was 2.49 µM (inactive). For the same compound, the GI50 in experiment [13] is 34.2 µM (inactive); in experiment [14], 17.3 µM (inactive); in [15], 18.4 µM (inactive); in experiment [16], 12.3 µM (inactive); in [17], 2.42 µM (inactive); in experiment [18] it was 10.2 µM (inactive). Besides, the GI50 in [19] is 17.9 µM (inactive); in [20], 1.78 µM (inactive).
Take `C=C(C(=O)OC1C(CO)OC(OCC2CC[C@@H]3C[C@]4(OC(=O)C3=C)C(C)=CC(=O)C24)C(O)C1O)[C@@H]1CCC(CO)C2C(=O)C=C(C)[C@@]2(O)C1` (stereo not given in full): the GI50 in experiment [1] is 4.37 µM (inactive); in [2], 0.28 µM (active); in [3], 3.61 µM (inactive); in experiment [4] it was 2.42 µM (inactive); in [5] it was 1.22 µM (inactive); in experiment [6] it was 9.4 µM (inactive). The GI50 is 2.63 µM (inactive) in [7]; 1.73 µM (inactive) in experiment [8]; 2.55 µM (inactive) in [9]; 1.16 µM (inactive) in experiment [10]; 0.693 µM (active) in [11]; 0.356 µM (active) in experiment [12]. The GI50 in experiment [13] was 17.1 µM (inactive); in experiment [14], 0.482 µM (active); in experiment [15], 3.34 µM (inactive); in experiment [16], 13.8 µM (inactive); in [17] it was 3.07 µM (inactive); in [18], 1.84 µM (inactive). Further, the GI50 in experiment [19] is 1.62 µM (inactive); in [20], 1.76 µM (inactive).

The values above are taken from ChEMBL document CHEMBL1201862, “PubChem BioAssay data set” (2004).
